Literature values in EP2338500A1, “Process for producing concentrated and refined actives from tissues and byproducts of Olea europaea with membrane technologies” (Phenofarm S.r.l., priority 2009, dated 2011).

Test system: murine leukemic cells P-388
Conditions: P-388 cells

| Compound | cytotoxic activity at a concentration ED50 [µg/mL] |
| --- | --- |
| C[C@@H]1O[C@@H](O[C@@H]2[C@@H](O)[C@H](OCCc3ccc(O)c(O)c3)O[C@H](CO)[C@H]2OC(=O)/C=C/c2ccc(O)c(O)c2)[C@H](O)[C@H](O)[C@H]1O [verbascoside] | 26 |
| C[C@@H]1O[C@@H](O[C@@H]2[C@@H](O)[C@H](OCCc3ccc(O)c(O)c3)O[C@H](COC(=O)/C=C/c3ccc(O)c(O)c3)[C@H]2O)[C@H](O)[C@H](O)[C@H]1O [isoverbascoside] | 10 |
